≈ marks a conversion by molar mass, not a printed value.
Conditions: for aqueous solubility: pH 6.8

Row | SMILES | intrinsic clearance, human liver microsomes [mL/min/kg] | intrinsic clearance, rat liver microsomes [mL/min/kg] | MDR1-MDCK efflux ratio | aqueous solubility [µg/mL] | fraction unbound, human plasma | fraction unbound, rat plasma
1 | COCC(=O)N(CC1CCCO1)c1nc2c(s1)CCc1c-2cnn1C (configuration not stated) | 6.3 | 14.2 | – | – | – | –
2 | Cc1ccc(NC(=O)CN2CCCC(c3nc4ccccc4o3)C2)cc1C (configuration not stated) | 216 | 2610 | 1.08 | 10 (≈ 27.5 µM) | – | –
3 | Cc1cccn(Cc2cccnc2)c1=O | ≤ 4.74 | ≤ 10.7 | 0.609 | 47 (≈ 235 µM) | – | –
4 | COc1cccc(C(=O)C[n+]2cc(-c3ccc(F)cc3)n(C)c2N)c1 | ≤ 4.74 | 45.2 | 26.3 | 74.1 | – | –
5 | O=C(O)c1ccccc1-n1cnc(CN2CCCC2)c1 | ≤ 4.74 | ≤ 10.7 | 2.49 | 38.8 (≈ 143 µM) | – | –
6 | Cc1oc2ccccc2c1CNc1nnc(-c2ccncc2)o1 | 33.4 | 141 | 1.02 | – | 0.0522 | 0.00672
7 | Cn1c(=O)n(C)c2cc(CN3CCC(c4ccc(Cc5ccccc5F)cn4)CC3)ccc21 | 84.8 | 108 | 6.24 | 56.6 (≈ 127 µM) | – | –
8 | Cc1cc(NC(=O)c2ccc(Cl)cc2F)no1 | – | – | – | 7 (≈ 27.5 µM) | – | –
9 | Cc1nn(-c2ccc(F)cc2)c2ncc(C(=O)Nc3nc(C4CC4)cs3)cc12 | 5.68 | 32.4 | – | 5.35 (≈ 13.6 µM) | – | –
10 | Cc1nonc1C(=O)NCCc1c[nH]c2cccc(C3(O)CCOCC3)c12 | – | – | – | 61.2 (≈ 165 µM) | – | –
11 | CN1CCC[C@H]1C(=O)N[C@@H](CO)Cc1ccccc1 | 7.16 | 315 | 2.77 | – | – | –
12 | CCCn1ncc(CN2CCC(c3ncc[nH]3)CC2)c1C | 7.33 | 498 | – | – | – | –
13 | COc1cccc(CN2CCN(C(=O)Cc3ccc(C)cc3)[C@@H](C)C2)c1 | 230 | 988 | 0.739 | 44 (≈ 125 µM) | – | –
14 | O=C(Nc1ccccc1)Nc1ccc(OC(F)(F)F)cc1 | – | – | 0.328 | 0.8 (≈ 2.7 µM) | – | –
15 | CCOc1ccc(S(=O)(=O)N(CC)CC(=O)Nc2ccc3c(c2)OCO3)cc1 | – | – | 0.853 | 0.44 (≈ 1.08 µM) | – | –
16 | O=C(C1CCC1)N1CCC(c2ncc(-c3ccc(F)c(F)c3)[nH]2)CC1 | 43.2 | 2740 | 3.5 | 57.1 (≈ 165 µM) | – | –
17 | O=C1CCCc2c1[nH]c1cc(-n3ccnc3-c3ccncc3)ccc21 | 26.7 | 187 | 14.5 | 6.53 (≈ 19.9 µM) | – | –
18 | Cc1sc2nc(CN3CCOCC3)nc(N3CCN(c4ccncc4)CC3)c2c1C | 18.3 | 281 | 28.9 | 76.6 (≈ 180 µM) | – | –
19 | O=C(CSCCCn1c(=O)[nH]c2ccccc21)N1CCCCC1 | 68.3 | 760 | – | 59.6 (≈ 179 µM) | – | –
20 | Cc1cc(C(=O)NC2CCN(c3ncnc4sc(C)c(C)c34)CC2)on1 | 43.3 | 368 | – | 2.49 (≈ 6.7 µM) | – | –
21 | CC1(C)CN(C(=O)c2cscn2)CCS1(=O)=O | – | – | – | 39.9 (≈ 145 µM) | – | –

Row | SMILES | intrinsic clearance, human liver microsomes [mL/min/kg] | intrinsic clearance, rat liver microsomes [mL/min/kg] | MDR1-MDCK efflux ratio | aqueous solubility [µg/mL] | fraction unbound, human plasma | fraction unbound, rat plasma
22 | O=C(Nc1nnc2n1CCCC2)c1cscn1 | ≤ 4.74 | ≤ 10.7 | 4.14 | – | – | –
23 | Nc1nc(N)c2c(Cl)c(Br)ccc2n1 | 7.36 | 84.7 | 0.574 | 24.6 (≈ 90 µM) | – | –
24 | Cc1cccc(OC2CCN(CC(N)=O)CC2)c1 | ≤ 4.74 | 67.2 | 0.636 | 79 (≈ 318 µM) | – | –
25 | O=C(Nc1ccc(COC2CCCC2)cc1)N1CCC(CO)CC1 | ≤ 4.74 | 329 | 5.55 | – | – | –
26 | COc1ccccc1CNc1n[nH]c2nc([C@H]3CCCN(CC(=O)N4CCCC4)C3)ccc12 | 22.9 | 422 | 43.9 | 54.9 (≈ 122 µM) | – | –
27 | CC(=O)NCCOc1ccc2ccccc2n1 | 12.9 | 89.1 | – | – | – | –
28 | CCc1cnccc1C(=O)Nc1cnccn1 | ≤ 4.74 | 17.2 | 0.767 | – | – | –
29 | O=C(NCc1ccccn1)c1ccc(F)cc1Cl | ≤ 4.74 | ≤ 10.7 | 0.596 | 39.2 (≈ 148 µM) | – | –
30 | CC(C)COc1ccc(C(C)(C)NCc2nnc(C3CCC3)o2)cc1 | 127 | 3070 | – | – | – | –
31 | COc1cc(CCNC2CCC3(CC2)OCCO3)ccc1F | 60.6 | 2240 | 1 | – | – | –
32 | CCCn1cnnc1CN(C)Cc1ccc(C(F)(F)F)nc1 | ≤ 4.74 | 29.5 | 23.6 | – | – | –
33 | O=C(NNc1ccccc1)c1ccncc1 | – | – | 0.738 | – | – | –
34 | COc1ccccc1N1CCN(CCNC(=O)c2ccc(F)cc2)CC1 | 22 | 356 | – | – | – | –
35 | CCCc1nn(CCCN2CCCCC2)c(=O)o1 | 13.6 | 1600 | 0.542 | – | – | –
36 | CC(C)(C)c1ccc(C(O)CN2CCC(O)(c3ccc4c(c3)OCO4)CC2)cc1 (configuration not stated) | 45.8 | – | 0.698 | – | 0.0601 | –
37 | O=C(CNc1cc(N2CCCC2=O)ccc1F)N1CCCCCC1 | 23.8 | 393 | 2.68 | – | – | –
38 | CCCc1cc(N2CCc3c(nc(C4CC4)n3C)C2)n2ncnc2n1 | 9.63 | 179 | 38.3 | 53.3 (≈ 158 µM) | 0.476 | 0.244
39 | CC(C)c1nccn1Cc1nc2ccccc2[nH]1 | ≤ 4.74 | 238 | 24.4 | – | – | –
40 | Cc1nc(N2CCc3c(ncn3C)C2)c2c(C)c(C)sc2n1 | 94.2 | 655 | 1.94 | 47.5 (≈ 152 µM) | – | –
41 | CCCCOc1nc(N)c2c(n1)N(Cc1cccc(CN3CCCC3)c1)CC(=O)N2 | 113 | 1870 | 5.49 | – | – | –
42 | CCCc1cc(CNS(=O)(=O)c2cc(-c3cnc(C)o3)ccc2C)on1 | 392 | 2500 | 7.7 | – | – | –

Row | SMILES | intrinsic clearance, human liver microsomes [mL/min/kg] | intrinsic clearance, rat liver microsomes [mL/min/kg] | MDR1-MDCK efflux ratio | aqueous solubility [µg/mL] | fraction unbound, human plasma | fraction unbound, rat plasma
43 | CC(C)(C)c1ccc(=O)n(CC2CN(CC3(O)CCCC3)C2)n1 | 6.33 | 110 | 18.8 | 45.8 (≈ 143 µM) | – | –
44 | COCc1nc(-c2cc(F)ccc2F)c(C)s1 | 133 | 425 | 0.684 | 3.6 (≈ 14.1 µM) | – | –
45 | CC(=O)N1CCN(CCNC(=O)N2CCc3sccc3C2)CC1 | 10.1 | 74.2 | 30.4 | 55.8 (≈ 166 µM) | – | –
46 | CC1CCC(O)(CSc2nnnn2C2CC2)CC1 (configuration not stated) | 12.7 | 355 | 0.616 | – | – | –
47 | O=c1ccc(C2CC2)nn1CC1CN(CC2(O)CCCC2)C1 | ≤ 4.74 | 84 | 12.5 | 52.6 (≈ 173 µM) | – | –
48 | COc1cc2ncnc(Nc3cccc(O)c3)c2cc1OC | 22 | 154 | – | – | 0.0987 | 0.0447
49 | CCCCN(C)C(=O)Nc1cc(C)ccn1 | 41.3 | 226 | 0.56 | 24.9 (≈ 113 µM) | – | –
50 | COc1ccc(N)cc1N1CCOC1=O | ≤ 4.74 | ≤ 10.7 | – | 32.2 (≈ 155 µM) | – | –
51 | c1nc(Nc2ccc3c(c2)OCCCO3)c2sccc2n1 | 92.1 | 1570 | – | 51 (≈ 170 µM) | – | –
52 | N#Cc1cccc(NC(=O)C2CCC2)c1 | – | – | – | 33.8 (≈ 169 µM) | – | –
53 | Cc1nc(-c2cc(C)on2)n(CCc2ccccc2)n1 | 92.1 | 3950 | 0.6 | 21.5 (≈ 80.2 µM) | – | –
54 | O=C(Nc1cc[nH]n1)c1ccc2c(c1)[nH]c(=O)n2C1CCCC1 | 18.1 | 53.5 | – | – | – | –
55 | COCC1(CNS(=O)(=O)c2ccccc2)CCC1 | 30.7 | 996 | 0.696 | – | – | –
56 | O=c1n(CCc2ccncc2)nnn1-c1ccccc1 | 5.8 | 65.2 | 0.571 | 23.1 (≈ 86.3 µM) | – | –
57 | CN(Cc1nc(N)c2ccccc2n1)Cc1ccc(F)cc1F | 54 | 1970 | 3.49 | 43.1 (≈ 137 µM) | – | –
58 | Cc1oc2cc(OCC(=O)Nc3nccs3)ccc2c(=O)c1Oc1ccc(F)cc1 | – | – | 0.97 | 0.5 (≈ 1.17 µM) | – | –
59 | Cn1cccc(C(=O)NCc2nc(C(C)(C)C)no2)c1=O | ≤ 4.74 | 137 | 1.44 | – | – | –
60 | FC(F)(F)c1nc(Nc2ccc(-n3cnnn3)cc2)c2ccccc2n1 | ≤ 4.74 | ≤ 10.7 | 1.13 | 1.15 (≈ 3.22 µM) | – | –
61 | COc1cc2ncn(-c3cc(OCc4ccccc4S(C)(=O)=O)c(C#N)s3)c2cc1OC | – | – | 8.01 | 0.3 (≈ 0.639 µM) | – | –
